According to ChEMBL document CHEMBL4024702, “Covalent Modifiers: A Chemical Perspective on the Reactivity of α,β-Unsaturated Carbonyls with Thiols via Hetero-Michael Addition Reactions” (J Med Chem, 2017):
Blank lines part the entries; values can stand above or below the compound they belong to.

Columns and labels:
[1] = Glutathione reactivity of the compound in DMSO/HEPES buffer assessed as second order rate constant for adduct formation at pH 7.4 by spectroscopic analysis
Tetrahymena pyriformis = test: Toxicity in Tetrahymena pyriformis assessed as growth inhibition after 48 hrs
[2] = Glutathione reactivity of the compound in DMSO and phosphate buffer assessed as second order rate constant for adduct formation
[3] = DTT reactivity of the compound in acetonitrile to tris-HCL buffer at pH 7.4 by NMR spectroscopic analysis
[4] = Glutathione reactivity of the compound in acetonitrile to tris-HCL buffer at pH 7.4 by NMR spectroscopic analysis
[5] = Cysteamine reactivity of the compound in TRIS-HCL assessed as second order rate constant at 40 uM and pH 7.4 by stopped-flow assay
[6] = Thiol reactivity of the compound in PBS buffer assessed as pseudo-first order rate constant for adduct formation in presence of 4-nitrobenzenethiol at pH 7.4 by stop-flow spectrophotometric analysis
[7] = Inhibition of PI3K (unknown origin); design: species or system Homo sapiens
[8] = Inhibition of wild-type HCV genotype 1b protease using 5-FAM/QXL 520 as substrate after 60 to 90 mins by FRET-based assay; design: species or system Hepatitis C virus subtype 1b
[9] = Cysteine reactivity of the compound assessed as second order rate constant by 1H NMR analysis
[10] = Lysine reactivity of the compound in aqueous buffer assessed as drug recovery after 6 days at pH 7.4
Exportin-1 = Exportin-1 (Homo sapiens, UniProt O14980); test: Inhibition of CRM1-mediated nucleocytoplasmic transport in human HeLa cells after 90 mins by immunofluorescence assay; format: cell-based
Exportin-1, sequence (O14980 whole entry): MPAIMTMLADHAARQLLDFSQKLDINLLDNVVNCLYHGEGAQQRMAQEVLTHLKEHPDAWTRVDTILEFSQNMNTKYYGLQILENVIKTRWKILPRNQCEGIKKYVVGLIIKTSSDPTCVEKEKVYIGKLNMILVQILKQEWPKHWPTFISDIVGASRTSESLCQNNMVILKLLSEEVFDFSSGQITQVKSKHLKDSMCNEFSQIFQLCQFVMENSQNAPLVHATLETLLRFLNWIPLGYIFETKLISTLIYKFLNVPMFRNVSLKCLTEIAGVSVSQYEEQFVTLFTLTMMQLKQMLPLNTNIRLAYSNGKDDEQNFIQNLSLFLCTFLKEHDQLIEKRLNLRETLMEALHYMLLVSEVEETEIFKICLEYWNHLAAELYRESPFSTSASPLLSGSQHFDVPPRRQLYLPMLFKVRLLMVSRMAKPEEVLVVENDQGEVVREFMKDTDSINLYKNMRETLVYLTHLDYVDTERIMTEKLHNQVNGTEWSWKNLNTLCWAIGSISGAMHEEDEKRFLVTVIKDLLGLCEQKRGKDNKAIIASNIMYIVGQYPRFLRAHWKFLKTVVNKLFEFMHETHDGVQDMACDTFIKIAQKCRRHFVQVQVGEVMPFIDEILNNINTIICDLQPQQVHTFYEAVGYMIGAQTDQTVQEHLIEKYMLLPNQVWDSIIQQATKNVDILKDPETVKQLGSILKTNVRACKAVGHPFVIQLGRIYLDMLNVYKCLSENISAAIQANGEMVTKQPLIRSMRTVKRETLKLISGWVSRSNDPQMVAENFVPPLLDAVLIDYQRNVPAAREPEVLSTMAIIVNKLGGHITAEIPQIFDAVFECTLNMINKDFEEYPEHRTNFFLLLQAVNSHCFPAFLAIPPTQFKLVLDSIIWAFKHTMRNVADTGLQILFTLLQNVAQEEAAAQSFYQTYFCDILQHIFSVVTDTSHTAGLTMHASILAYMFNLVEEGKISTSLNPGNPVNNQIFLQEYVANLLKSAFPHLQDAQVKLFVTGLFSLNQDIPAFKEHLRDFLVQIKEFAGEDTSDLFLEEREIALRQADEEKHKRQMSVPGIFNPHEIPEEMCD

[11] = Butanethiol reactivity of the compound in CD3OD/deuterio phosphate buffer assessed as equilibrium constant for adduct formation at pH 7.4 by […] analysis
[12] = Glutathione reactivity of the compound in CD3OD/deuterio phosphate buffer assessed as equilibrium constant for adduct formation at pH 7.4 by […] analysis
[13] = Cysteine reactivity of the compound in CD3OD/deuterio phosphate buffer assessed as equilibrium constant for adduct formation at pH 7.4 by […] analysis
[14] = Beta-mercaptoethanol reactivity of the compound in CD3OD/deuterio phosphate buffer assessed as equilibrium constant for adduct formation at pH 7.4 by […] analysis
[15] = Methanethiol reactivity of the compound in CD3OD/deuterio phosphate buffer assessed as equilibrium constant for adduct formation at pH 7.4 by […] analysis
Papain (Carica papaya) = target: T1, Papain (Carica papaya) (UniProt P00784); test: Irreversible inhibition of Carica papaya papain assessed as ratio of Kinact to Ki
T1 sequence (whole entry): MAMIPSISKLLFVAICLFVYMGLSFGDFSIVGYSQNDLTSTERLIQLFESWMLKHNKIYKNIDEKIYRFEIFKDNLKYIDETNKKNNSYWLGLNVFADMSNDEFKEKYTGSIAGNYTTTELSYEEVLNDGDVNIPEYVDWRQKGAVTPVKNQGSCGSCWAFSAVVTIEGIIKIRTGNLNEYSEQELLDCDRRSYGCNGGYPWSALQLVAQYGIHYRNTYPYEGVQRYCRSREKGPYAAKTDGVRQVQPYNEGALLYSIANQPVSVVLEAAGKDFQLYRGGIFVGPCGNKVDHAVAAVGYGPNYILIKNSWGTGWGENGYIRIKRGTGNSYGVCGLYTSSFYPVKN

[16] = Thiol reactivity of the compound in PBS buffer assessed as adduct formation at 100 to 200 uM at pH 7.4 by UV-visible spectroscopic analysis
[17] = Thiol reactivity of the compound assessed as equilibrium constant for adduct formation

SMILES: CCN(CC)c1ccc2cc(C(CC=O)SC[C@H](NC(=O)CC[C@H](N)C(=O)O)C(=O)NCC(=O)O)c(=O)oc2c1 (stereo partly drawn)
K [1]: 0.41 M⁻¹ s⁻¹

SMILES: CCCCCC#CC=O
EC50 (Tetrahymena pyriformis): 19 µM | K [2]: 487 M⁻¹ s⁻¹

SMILES: O=C(/C=C/c1ccc(O)cc1)/C=C/c1ccc(O)cc1
DTT second-order rate constant [3]: 0.014 M⁻¹ s⁻¹ | Activity [4]: 0.001 M⁻¹ s⁻¹

SMILES: COc1ccc(C(=O)C(C(SCCN)c2ccc(OC)c(OC)c2)[N+](=O)[O-])c(OC)c1 (stereo not drawn)
K [5]: 750 M⁻¹ s⁻¹

SMILES: CC(C)(C)c1cc(O)cc(Sc2ccc([N+](=O)[O-])cc2)c1O
K [6]: 2.3 ×10¹ /s

SMILES: CCN(CC)c1ccc2cc(C(SC[C@H](NC(=O)CC[C@H](N)C(=O)O)C(=O)NCC(=O)O)C(C(C)=O)C(C)=O)c(=O)oc2c1 (stereo partly drawn)
K [1]: 12 M⁻¹ s⁻¹

SMILES: COc1ccc(C(=O)C(C(SCCN)c2ccc(OC)c(OC)c2)C(F)(F)F)c(OC)c1 (stereo not drawn)
K [5]: 17 M⁻¹ s⁻¹

SMILES: COc1ccc(C(=O)C(Br)C(SCCN)c2ccc(OC)c(OC)c2)c(OC)c1 (stereo not drawn)
K [5]: 2.9 M⁻¹ s⁻¹

IC50 [7]: 0.0001 µM
SMILES: CO[C@H]1OC(=O)/C(=C\SC(C)C)C2=C(O)C(=O)C3=C([C@H](OC(C)=O)C[C@]4(C)C(=O)CC[C@@H]34)[C@]21C

SMILES: C=C(C)C(=O)OC
EC50 (Tetrahymena pyriformis): 16600 µM | K [2]: 0.072 M⁻¹ s⁻¹

SMILES: O=C1/C(=C/c2ccccc2O)CC/C1=C\c1ccccc1O
DTT second-order rate constant [3]: 29 M⁻¹ s⁻¹ | Activity [4]: 87 M⁻¹ s⁻¹

IC50 [8]: 1.15 µM
SMILES: C=C[C@@H]1C[C@]1(NC(=O)[C@@H]1C[C@@H](Oc2nccc3ccc(Br)cc23)CN1C(=O)[C@@H](C)NC(=O)CC)C(=O)CS(=O)(=O)C1CC1

IC50 [7]: 0.0003 µM
SMILES: CO[C@H]1OC(=O)/C(=C\N(C2CC2)C2CC2)C2=C(O)C(=O)C3=C([C@H](OC(C)=O)C[C@]4(C)C(=O)CC[C@@H]34)[C@]21C

IC50 [8]: 0.002 µM
SMILES: C=CC(=O)NCC(=O)N1C[C@H](Oc2nccc3ccc(Br)cc23)C[C@H]1C(=O)N[C@]1(C(=O)CS(=O)(=O)C2CC2)C[C@H]1C=C

SMILES: Cc1cc(O)c(C)c(Sc2ccc([N+](=O)[O-])cc2)c1O
K [6]: 7.3 ×10⁻¹ /s

SMILES: C=C1C(=O)O[C@H]2[C@H]1[C@H](OC(=O)/C(C)=C\C)CC(=C)[C@@H]1[C@H](O)[C@H]3O[C@@]3(C)[C@@]12O
K [9]: 42 M⁻¹ s⁻¹ | Drug recovery [10]: 75%

SMILES: Cc1cc(O)cc(Sc2ccc([N+](=O)[O-])cc2)c1O
K [6]: 3.2 ×10² /s

IC50 (Exportin-1): 0.025 µM
SMILES: CCC(=C/C(C)C)/C=C/[C@@H]1OC(=O)C=C[C@@H]1C

SMILES: COC[C@H]1OC(=O)c2coc3c2[C@@]1(C)C1=C(C3=O)[C@@H]2CCC(=O)[C@@]2(C)C[C@H]1OC(C)=O [WORTMANNIN]
IC50 [7]: 0.0008 µM

SMILES: COc1ccc(C(=O)C(C#N)C(SCCN)c2ccc(OC)c(OC)c2)c(OC)c1 (stereo not drawn)
K [5]: 5700 M⁻¹ s⁻¹

SMILES: CCCCC[C@H](O)/C=C/[C@H]1C=CC(=O)/C1=C/CCCCCC(=O)OC
Ke [11]: 0.35 to 1.6 M⁻¹ | Ke [12]: 0.35 to 1.6 M⁻¹ | Ke [13]: 0.35 to 1.6 M⁻¹ | Ke [14]: 0.35 to 1.6 M⁻¹ | Ke [15]: 0.35 to 1.6 M⁻¹

Ratio (Papain (Carica papaya)): 0.5 M⁻¹ s⁻¹
SMILES: COC(=O)/C=C/CNC(=O)C1CCN(C(=O)CC(C)C)CC1

Ratio (Papain (Carica papaya)): 6.6 M⁻¹ s⁻¹
SMILES: COC(=O)/C=C/CNC(=O)[C@@H](CNC(C)=O)Cc1ccccc1

SMILES: C=CC(=O)CCC
EC50 (Tetrahymena pyriformis): 22 µM | K [2]: 1170 M⁻¹ s⁻¹

Kd [16]: 200 µM
SMILES: CS(=O)(=O)c1ccc(-c2cccc(C(SCCO)C(C#N)C(N)=O)c2)cc1 (stereo not drawn)

SMILES: O=C1/C(=C/c2ccccc2)CC/C1=C\c1ccccc1
DTT second-order rate constant [3]: 2.3 M⁻¹ s⁻¹ | Activity [4]: 9.3 M⁻¹ s⁻¹

IC50 [7]: 0.0005 µM
SMILES: CO[C@H]1OC(=O)/C(=C\Sc2ccccc2)C2=C(O)C(=O)C3=C([C@H](OC(C)=O)C[C@]4(C)C(=O)CC[C@@H]34)[C@]21C

SMILES: C=C(C)C(=O)O[C@H]1CC2=C[C@@H](C[C@@]3(C)O[C@H]3[C@H]3OC(=O)C(=C)[C@@H]31)OC2=O
K [9]: 20 M⁻¹ s⁻¹ | Drug recovery [10]: 75%

SMILES: CC1=CC(=O)CC1
EC50 (Tetrahymena pyriformis): 20900 µM | Ke [17]: 0.88 M⁻¹ | K [2]: 0.074 M⁻¹ s⁻¹
